Test results taken from US7538226B2, “(1S,5S)-3-(5,6-dichloro-3-pyridinyl)-3,6-diazabicyclo[3.2.0]heptane” (Abbott Laboratories, priority 2003, dated 2009).

Tests used:
Solubility in water = format: physicochemical
[1] = tested on: scopolamine-induced cognitive deficit; assay: Morris water maze, spatial discrimination version, scopolamine-induced cognitive deficit; format: in vivo, rat; settings: about 0.001 to about 5 μmol/kg, 30 minutes prior to the test; scopolamine HBr 0.3 mg/kg i.p.
Method: Male, Long-Evans rats, 300-400 g, obtained from Charles River laboratories were used in this study. During two daily habituation sessions, rats are trained to find a visible escape platform in a pool (180 cm diameter and 60 cm high) filled to a depth of 37 cm with water made opaque with powdered milk. Water temperature is maintained at 26° C. On the second day of habituation training, latency to escape measures are obtained in order to assure that animals are assigned to groups without swim speed bias. For spatial discrimination training, two visible platforms, covered in aluminum foil, are present. The platforms remain in the same position (diagonal to each other) through 5 days of training. Only one of the platforms provides escape; the other, made of expanded polystyrene, will not support the animals' weight. Rats receive six trials/day, with start position changed from trial to trial. The number of contacts with the incorrect platform (errors) serves as the dependent variable.
A cognitive deficit, as measured by increased number of errors in the water maze test, is induced by i.p. administration of the muscarinic antagonist scopolamine·HBr (0.3 mg/kg), dosed 15 min prior to each daily discrimination training session (over five days total).

Structure (SMILES) | solubility (Solubility in water) [µg/mL] | effect on scopolamine-induced cognitive deficit in the water maze [1]
CS(=O)(=O)O.Clc1cc(N2C[C@@H]3CN[C@@H]3C2)cnc1Cl [Example 8, (1S,5S)-3-(5,6-Dichloro-pyridin-3-yl)-3,6-diaza-bicyclo[3.2.0]heptane methanesulfonate] | > 50000 | –
CC(=O)O.Clc1cc(N2C[C@@H]3CN[C@@H]3C2)cnc1Cl [Example 6, (1S,5S)-3-(5,6-Dichloro-pyridin-3-yl)-3,6-diaza-bicyclo[3.2.0]heptane acetate] | 13400 | –
Clc1cc(N2C[C@@H]3CN[C@@H]3C2)cnc1Cl [(1S,5S)-3-(5,6-Dichloropyridin-3-yl)-3,6-diaza-bicyclo[3.2.0]heptane] | – | reversed the cognitive deficit and normalized the performance of the animals in the water maze
Clc1cc(N2C[C@@H]3CN[C@@H]3C2)cnc1Cl.O=C(O)/C=C/C(=O)O [Example 10, (1S,5S)-3-(5,6-Dichloro-pyridin-3-yl)-3,6-diaza-bicyclo[3.2.0]heptane fumarate] | 2900 | –
Clc1cc(N2C[C@@H]3CN[C@@H]3C2)cnc1Cl.O=C(O)/C=C\C(=O)O [Example 9, (1S,5S)-3-(5,6-Dichloro-pyridin-3-yl)-3,6-diaza-bicyclo[3.2.0]heptane maleate] | 7500 | –
